US6939989B2, “Side-chain halogenated amino dicarboxylic acid derivatives as medicaments for treating cardiovascular diseases” (Bayer Aktiengesellschaft, priority 2001, dated 2005)

Experiments:
[1] = system: arteria saphena rings; assay: Vasorelaxant effect in vitro (phenylephrine-contracted arteria saphena rings); assay type: cell-based, Rabbits; conditions: Oryctolagus cuniculus; rabbit arteria saphena rings, phenylephrine contraction
Protocol: Rabbits are anesthetized or killed by intravenous injection of thiopental sodium (about 50 mg/kg) and exsanguinated. The arteria saphena is removed and divided into rings 3 mm wide. The individual rings are in each case mounted on a pair of hooks of triangular shape, open at the ends and made of special wire (Remanium®) having a diameter of 0.3 mm. Under pretension, each ring is introduced into a 5 ml organ bath containing carbogen-gassed Krebs-Henseleit solution at 37° C. with the following composition (mM): NaCl: 119; KCl: 4.8; CaCl2×2H2O: 1; MgSO4×7H2O: 1.4; KH2PO4: 1.2; NaHCO3: 25; glucose: 10; bovine serum albumin: 0.001%. The force of contraction is detected with Statham UC2 cells, amplified and digitized via A/D converters (DAS-1802 HC, Keithley Instruments, Munich) and recorded in parallel on chart recorders. Contractions are generated by adding phenylephrine.
After several (generally 4) control cycles, the substance to be investigated is added in each further run in increasing dosage, and the height of the contraction reached under the influence of the test substance is compared with the height of the contraction reached in the last preceding run. The concentration necessary to reduce the height of the control value by 50% (IC50) is calculated from this. The standard application volume is 5 μl. The DMSO content in the bath solution corresponds to 0. 1%.

[2] = target: T1, Heme-free sGC (Rattus norvegicus, UniProt P20595); assay: Stimulation of recombinant soluble guanylate cyclase (sGC) in vitro, heme-free enzyme; assay type: biochemical
T1 construct: made in house; host or cells: Sf9 insect cells (baculovirus)
T1 sequence (P20595 1-619): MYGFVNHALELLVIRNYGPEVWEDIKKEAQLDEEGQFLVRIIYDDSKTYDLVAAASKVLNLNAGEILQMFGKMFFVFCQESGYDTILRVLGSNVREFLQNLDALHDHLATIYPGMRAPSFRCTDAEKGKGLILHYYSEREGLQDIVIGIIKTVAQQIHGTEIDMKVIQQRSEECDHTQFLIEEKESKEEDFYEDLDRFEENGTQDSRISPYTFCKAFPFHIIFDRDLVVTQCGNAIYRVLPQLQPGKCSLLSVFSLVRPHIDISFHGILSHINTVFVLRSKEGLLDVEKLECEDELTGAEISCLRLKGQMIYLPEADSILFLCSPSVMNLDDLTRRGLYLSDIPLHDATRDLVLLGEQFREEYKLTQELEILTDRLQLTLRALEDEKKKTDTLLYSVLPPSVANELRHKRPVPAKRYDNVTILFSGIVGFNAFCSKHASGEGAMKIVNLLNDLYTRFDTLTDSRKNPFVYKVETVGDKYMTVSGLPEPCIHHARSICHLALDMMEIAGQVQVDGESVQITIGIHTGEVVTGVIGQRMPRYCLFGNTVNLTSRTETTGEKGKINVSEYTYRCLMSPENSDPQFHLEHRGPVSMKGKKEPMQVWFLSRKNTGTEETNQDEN
T1 sequence (P19686 1-690 partner): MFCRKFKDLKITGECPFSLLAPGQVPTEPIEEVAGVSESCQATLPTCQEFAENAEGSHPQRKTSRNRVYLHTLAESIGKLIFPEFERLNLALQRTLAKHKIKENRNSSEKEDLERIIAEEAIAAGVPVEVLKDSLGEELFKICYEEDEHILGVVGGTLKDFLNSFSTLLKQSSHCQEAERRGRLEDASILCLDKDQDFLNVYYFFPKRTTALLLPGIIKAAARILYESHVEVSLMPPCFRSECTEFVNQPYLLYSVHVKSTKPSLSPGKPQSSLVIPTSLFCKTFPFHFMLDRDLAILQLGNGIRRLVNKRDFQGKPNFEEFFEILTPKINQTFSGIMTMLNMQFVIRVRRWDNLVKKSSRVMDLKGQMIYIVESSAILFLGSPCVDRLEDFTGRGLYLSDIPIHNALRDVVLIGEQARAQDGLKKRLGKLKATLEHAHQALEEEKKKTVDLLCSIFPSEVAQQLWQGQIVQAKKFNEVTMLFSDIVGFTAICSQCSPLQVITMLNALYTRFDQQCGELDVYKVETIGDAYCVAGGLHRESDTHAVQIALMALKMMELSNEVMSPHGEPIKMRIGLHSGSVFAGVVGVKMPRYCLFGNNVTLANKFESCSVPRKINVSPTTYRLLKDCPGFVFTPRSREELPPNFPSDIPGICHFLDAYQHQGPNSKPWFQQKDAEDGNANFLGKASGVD
Protocol: The investigations of the stimulation of recombinant soluble guanylate cyclase (sGC) and the compounds according to the invention with and without sodium nitroprusside and with and without the heme-dependent sGC inhibitor 1H-1,2,4-oxadiazole-(4,3a)-quinoxalin-1-one (ODQ) were carried out according to the method described in detail in the following literature reference: M. Hoenicka, E. M. Becker, H. Apeler, T. Sirichoke, H. Schroeder, R. Gerzer and J.-P. Stasch: Purified soluble guanylyl cyclase expressed in a baculovirus/Sf9 system: stimulation by YC-1, nitric oxide, and carbon oxide. J. Mol. Med. 77 (1999): 14-23.
The heme-free guanylate cyclase was obtained by adding Tween 20 to the sample buffer (final concentration 0.5%).
(§1) Activation of sGC by a test substance is stated as n-fold stimulation of basal activity.

[3] = target: T2, Heme-containing sGC (Rattus norvegicus, UniProt P20595); assay: Stimulation of recombinant soluble guanylate cyclase (sGC) in vitro, heme-containing enzyme; assay type: biochemical
T2 construct: made in house; host or cells: Sf9 insect cells (baculovirus)
T2 sequence (P20595 1-619): T1 sequence (P20595 1-619)
T2 sequence (P19686 1-690 partner): T1 sequence (P19686 1-690 partner)
Protocol: The investigations of the stimulation of recombinant soluble guanylate cyclase (sGC) […] heme-dependent sGC inhibitor 1H-1,2,4-oxadiazole-(4,3a)-quinoxalin-1-one (ODQ) were carried out according to the method described in detail in the following literature reference: M. Hoenicka, E. M. Becker, H. Apeler, T. Sirichoke, H. Schroeder, R. Gerzer and J.-P. Stasch: Purified soluble guanylyl cyclase expressed in a baculovirus/Sf9 system: stimulation by YC-1, nitric oxide, and carbon oxide. J. Mol. Med. 77 (1999): 14-23.
as §1

Compound: O=C(O)CCCCN(CCc1ccccc1OCc1ccc(-c2ccc(C(F)(F)F)cc2)cc1Cl)Cc1ccc(C(=O)O)cc1 [Example 6]
- IC50 [1]: 170 pM
- Stimulation (n-fold), heme-free sGC, basal ([2]; Ex. 6 0.001 μM): 10 n-fold
- Stimulation (n-fold), heme-free sGC, + ODQ (10 μM) ([2]; Ex. 6 0.001 μM + ODQ 10 μM): 25 n-fold
- Stimulation (n-fold), heme-free sGC, basal ([2]; Ex. 6 0.01 μM): 55 n-fold
- Stimulation (n-fold), heme-free sGC, + ODQ (10 μM) ([2]; Ex. 6 0.01 μM + ODQ 10 μM): 61 n-fold
- Stimulation (n-fold), heme-free sGC, basal ([2]; Ex. 6 0.1 μM): 81 n-fold
- Stimulation (n-fold), heme-free sGC, + ODQ (10 μM) ([2]; Ex. 6 0.1 μM + ODQ 10 μM): 79 n-fold
- Stimulation (n-fold), heme-free sGC, basal ([2]; Ex. 6 1.0 μM): 83 n-fold
- Stimulation (n-fold), heme-free sGC, + ODQ (10 μM) ([2]; Ex. 6 1.0 μM + ODQ 10 μM): 83 n-fold
- Stimulation (n-fold), heme-free sGC, basal ([2]; Ex. 6 10 μM): 84 n-fold
- Stimulation (n-fold), heme-free sGC, + ODQ (10 μM) ([2]; Ex. 6 10 μM + ODQ 10 μM): 83 n-fold
- Stimulation (n-fold), heme-containing sGC, basal ([3]; Ex. 6 0.001 μM): 2 n-fold
- Stimulation (n-fold), heme-containing sGC, + DEA/NO (0.001 μM) ([3]; Ex. 6 0.001 μM + DEA/NO 0.001 μM): 6 n-fold
- Stimulation (n-fold), heme-containing sGC, + DEA/NO (0.01 μM) ([3]; Ex. 6 0.001 μM + DEA/NO 0.01 μM): 32 n-fold
- Stimulation (n-fold), heme-containing sGC, + DEA/NO (0.1 μM) ([3]; Ex. 6 0.001 μM + DEA/NO 0.1 μM): 127 n-fold
- Stimulation (n-fold), heme-containing sGC, + ODQ (10 μM) ([3]; Ex. 6 0.001 μM + ODQ 10 μM): 35 n-fold
- Stimulation (n-fold), heme-containing sGC, basal ([3]; Ex. 6 0.01 μM): 9 n-fold
- Stimulation (n-fold), heme-containing sGC, + DEA/NO (0.001 μM) ([3]; Ex. 6 0.01 μM + DEA/NO 0.001 μM): 13 n-fold
- Stimulation (n-fold), heme-containing sGC, + DEA/NO (0.01 μM) ([3]; Ex. 6 0.01 μM + DEA/NO 0.01 μM): 39 n-fold
- Stimulation (n-fold), heme-containing sGC, + DEA/NO (0.1 μM) ([3]; Ex. 6 0.01 μM + DEA/NO 0.1 μM): 134 n-fold
- Stimulation (n-fold), heme-containing sGC, + ODQ (10 μM) ([3]; Ex. 6 0.01 μM + ODQ 10 μM): 95 n-fold
- Stimulation (n-fold), heme-containing sGC, basal ([3]; Ex. 6 0.1 μM): 18 n-fold
- Stimulation (n-fold), heme-containing sGC, + DEA/NO (0.001 μM) ([3]; Ex. 6 0.1 μM + DEA/NO 0.001 μM): 25 n-fold
- Stimulation (n-fold), heme-containing sGC, + DEA/NO (0.01 μM) ([3]; Ex. 6 0.1 μM + DEA/NO 0.01 μM): 52 n-fold
- Stimulation (n-fold), heme-containing sGC, + DEA/NO (0.1 μM) ([3]; Ex. 6 0.1 μM + DEA/NO 0.1 μM): 157 n-fold
- Stimulation (n-fold), heme-containing sGC, + ODQ (10 μM) ([3]; Ex. 6 0.1 μM + ODQ 10 μM): 147 n-fold
- Stimulation (n-fold), heme-containing sGC, basal ([3]; Ex. 6 1.0 μM): 23 n-fold
- Stimulation (n-fold), heme-containing sGC, + DEA/NO (0.001 μM) ([3]; Ex. 6 1.0 μM + DEA/NO 0.001 μM): 30 n-fold
- Stimulation (n-fold), heme-containing sGC, + DEA/NO (0.01 μM) ([3]; Ex. 6 1.0 μM + DEA/NO 0.01 μM): 53 n-fold
- Stimulation (n-fold), heme-containing sGC, + DEA/NO (0.1 μM) ([3]; Ex. 6 1.0 μM + DEA/NO 0.1 μM): 151 n-fold
- Stimulation (n-fold), heme-containing sGC, + ODQ (10 μM) ([3]; Ex. 6 1.0 μM + ODQ 10 μM): 150 n-fold
- Stimulation (n-fold), heme-containing sGC, basal ([3]; Ex. 6 10 μM): 25 n-fold
- Stimulation (n-fold), heme-containing sGC, + DEA/NO (0.001 μM) ([3]; Ex. 6 10 μM + DEA/NO 0.001 μM): 30 n-fold
- Stimulation (n-fold), heme-containing sGC, + DEA/NO (0.01 μM) ([3]; Ex. 6 10 μM + DEA/NO 0.01 μM): 67 n-fold
- Stimulation (n-fold), heme-containing sGC, + DEA/NO (0.1 μM) ([3]; Ex. 6 10 μM + DEA/NO 0.1 μM): 174 n-fold
- Stimulation (n-fold), heme-containing sGC, + ODQ (10 μM) ([3]; Ex. 6 10 μM + ODQ 10 μM): 159 n-fold
